Laboratory results from the NIST ThermoML archive (doi:10.1021/je100315g).
Numbers after ± are expanded uncertainties.

Experiment: xn = mol fraction of the nth substance listed
Conditions: 101 kPa, Liquid

`CCCC[n+]1ccn(C)c1.O=S(=O)([N-]S(=O)(=O)C(F)(F)F)C(F)(F)F` + C1CCOC1 showed a mass density (293.15 K, x1 = 0.0488) of 978.17 ± 0.34 kg/m3, a mass density (293.15 K, x1 = 0.1139) of 1069.71 ± 0.44 kg/m3 and a mass density (293.15 K, x1 = 0.1771) of 1136.61 ± 0.54 kg/m3. It also gave a mass density (293.15 K, x1 = 0.2815) of 1218.29 ± 0.66 kg/m3, a mass density (293.15 K, x1 = 0.4048) of 1286.31 ± 0.73 kg/m3 and a mass density (293.15 K, x1 = 0.4897) of 1321.41 ± 0.75 kg/m3. The mass density (293.15 K, x1 = 0.6329) was 1367.37 ± 0.77 kg/m3, the mass density (293.15 K, x1 = 0.7468) was 1395.56 ± 0.79 kg/m3 and the mass density (293.15 K, x1 = 0.9071) was 1426.74 ± 0.81 kg/m3. It also gave a mass density (293.15 K, x1 = 1) of 1441.63 ± 0.82 kg/m3, a mass density (298.15 K, x1 = 0.0488) of 973.69 ± 0.35 kg/m3 and a mass density (298.15 K, x1 = 0.1139) of 1065.22 ± 0.43 kg/m3. For the same compound, the mass density (298.15 K, x1 = 0.1771) was 1132.17 ± 0.53 kg/m3, the mass density (298.15 K, x1 = 0.2815) was 1213.74 ± 0.65 kg/m3 and the mass density (298.15 K, x1 = 0.4048) was 1281.83 ± 0.73 kg/m3. It also gave a mass density (298.15 K, x1 = 0.4897) of 1317.1 ± 0.75 kg/m3, a mass density (298.15 K, x1 = 0.6329) of 1362.88 ± 0.77 kg/m3 and a mass density (298.15 K, x1 = 0.7468) of 1391.06 ± 0.78 kg/m3. The mass density (298.15 K, x1 = 0.9071) was 1421.92 ± 0.8 kg/m3, the mass density (298.15 K, x1 = 1) was 1436.83 ± 0.81 kg/m3 and the mass density (303.13 K, x1 = 0.0488) was 970.01 ± 0.35 kg/m3. It also gave a mass density (303.13 K, x1 = 0.1139) of 1060.65 ± 0.42 kg/m3, a mass density (303.13 K, x1 = 0.1771) of 1128.01 ± 0.53 kg/m3 and a mass density (303.13 K, x1 = 0.2815) of 1209.23 ± 0.64 kg/m3. It also gave a mass density (303.13 K, x1 = 0.4048) of 1277.24 ± 0.72 kg/m3, a mass density (303.13 K, x1 = 0.4897) of 1312.14 ± 0.74 kg/m3 and a mass density (303.13 K, x1 = 0.6329) of 1358.73 ± 0.76 kg/m3. For the same compound, the mass density (303.13 K, x1 = 0.7468) was 1386.29 ± 0.77 kg/m3, the mass density (303.13 K, x1 = 0.9071) was 1417.19 ± 0.79 kg/m3 and the mass density (303.13 K, x1 = 1) was 1431.98 ± 0.81 kg/m3. It also gave a mass density (308.15 K, x1 = 0.0488) of 964.12 ± 0.38 kg/m3, a mass density (308.15 K, x1 = 0.1139) of 1055.92 ± 0.43 kg/m3 and a mass density (308.15 K, x1 = 0.1771) of 1122.34 ± 0.53 kg/m3. It also gave a mass density (308.15 K, x1 = 0.2815) of 1204.63 ± 0.64 kg/m3, a mass density (308.15 K, x1 = 0.4048) of 1272.69 ± 0.71 kg/m3 and a mass density (308.15 K, x1 = 0.4897) of 1307.42 ± 0.73 kg/m3. The mass density (308.15 K, x1 = 0.6329) was 1353.21 ± 0.75 kg/m3, the mass density (308.15 K, x1 = 0.7468) was 1381.45 ± 0.77 kg/m3 and the mass density (308.15 K, x1 = 0.9071) was 1412.45 ± 0.78 kg/m3. For the same compound, the mass density (308.15 K, x1 = 1) was 1427.16 ± 0.8 kg/m3.

With `CCCC[n+]1ccn(C)c1.O=S(=O)([N-]S(=O)(=O)C(F)(F)F)C(F)(F)F` + CC#N the mass density (293.15 K, x1 = 0.0971) was 1034.65 ± 0.52 kg/m3, the mass density (293.15 K, x1 = 0.2033) was 1175.45 ± 0.63 kg/m3 and the mass density (293.15 K, x1 = 0.2989) was 1252.06 ± 0.71 kg/m3. It also gave a mass density (293.15 K, x1 = 0.471) of 1335.15 ± 0.79 kg/m3, a mass density (293.15 K, x1 = 0.6261) of 1380.43 ± 0.8 kg/m3 and a mass density (293.15 K, x1 = 0.7423) of 1404.79 ± 0.8 kg/m3. It also gave a mass density (293.15 K, x1 = 0.8983) of 1429.03 ± 0.81 kg/m3, a mass density (293.15 K, x1 = 1) of 1441.63 ± 0.82 kg/m3 and a mass density (298.15 K, x1 = 0.0971) of 1029.33 ± 0.39 kg/m3. It also gave a mass density (298.15 K, x1 = 0.2033) of 1170.35 ± 0.61 kg/m3, a mass density (298.15 K, x1 = 0.2989) of 1247.09 ± 0.7 kg/m3 and a mass density (298.15 K, x1 = 0.471) of 1330.18 ± 0.78 kg/m3. The mass density (298.15 K, x1 = 0.6261) was 1375.57 ± 0.79 kg/m3, the mass density (298.15 K, x1 = 0.7423) was 1400.01 ± 0.79 kg/m3 and the mass density (298.15 K, x1 = 0.8983) was 1424.12 ± 0.8 kg/m3. It also gave a mass density (298.15 K, x1 = 1) of 1436.83 ± 0.81 kg/m3, a mass density (303.13 K, x1 = 0.0971) of 1024.05 ± 0.38 kg/m3 and a mass density (303.13 K, x1 = 0.2033) of 1165.12 ± 0.6 kg/m3. For the same compound, the mass density (303.13 K, x1 = 0.2989) was 1242.32 ± 0.69 kg/m3, the mass density (303.13 K, x1 = 0.471) was 1325.41 ± 0.77 kg/m3 and the mass density (303.13 K, x1 = 0.6261) was 1370.72 ± 0.78 kg/m3. For the same compound, the mass density (303.13 K, x1 = 0.7423) was 1395.36 ± 0.79 kg/m3, the mass density (303.13 K, x1 = 0.8983) was 1419.28 ± 0.8 kg/m3 and the mass density (303.13 K, x1 = 1) was 1431.98 ± 0.81 kg/m3. It also gave a mass density (308.15 K, x1 = 0.0971) of 1019.47 ± 0.38 kg/m3, a mass density (308.15 K, x1 = 0.2033) of 1160.25 ± 0.6 kg/m3 and a mass density (308.15 K, x1 = 0.2989) of 1237.21 ± 0.68 kg/m3. The mass density (308.15 K, x1 = 0.471) was 1320.49 ± 0.76 kg/m3, the mass density (308.15 K, x1 = 0.6261) was 1365.88 ± 0.77 kg/m3 and the mass density (308.15 K, x1 = 0.7423) was 1390.45 ± 0.78 kg/m3. The mass density (308.15 K, x1 = 0.8983) was 1414.54 ± 0.79 kg/m3, the mass density (308.15 K, x1 = 1) was 1427.16 ± 0.8 kg/m3 and the mass density (313.15 K, x1 = 0.0971) was 1014.26 ± 0.58 kg/m3. It also gave a mass density (313.15 K, x1 = 0.2033) of 1155.05 ± 0.62 kg/m3, a mass density (313.15 K, x1 = 0.2989) of 1232.4 ± 0.69 kg/m3 and a mass density (313.15 K, x1 = 0.471) of 1315.67 ± 0.77 kg/m3. It also gave a mass density (313.15 K, x1 = 0.6261) of 1361.14 ± 0.77 kg/m3, a mass density (313.15 K, x1 = 0.7423) of 1385.64 ± 0.77 kg/m3 and a mass density (313.15 K, x1 = 0.8983) of 1409.73 ± 0.78 kg/m3. It also gave a mass density (313.15 K, x1 = 1) of 1422.36 ± 0.79 kg/m3.
